Assays:
[1] = target: T1, Recombinant Human NF-kappaB-inducing Kinase (NIK/MAP3K14) (Homo sapiens (Human), UniProt Q99558); assay: Biological Assay A: inhibition of recombinant human NIK/MAP3K14 activity (MSD, MBP substrate); settings: 25 μM ATP, 10 nM NIK/MAP3K14, 1 h at 25° C.; averaged over all measurements on all batches; read-out: Biochemical (MSD MBP) IC50
Procedure: Inhibition of Recombinant Human NF-kappaB-inducing Kinase (NIK/MAP3K14) Activity
Assay buffer was 50 mM Tris pH 7.5 containing 1 mM EGTA (ethylene glycol tetraacetic acid), 1 mM DTT (dithiothreitol), 0.1 mM Na3VO4, 5 mM MgCl2, 0.01% Tween® 20. Assays were carried out in 384 well Mesoscale high binding plates which had been coated with myelin basic protein (MBP) and blocked with bovine serum albumin to prevent non-specific protein binding. All compounds tested were dissolved in dimethyl sulfoxide (DMSO) and further dilutions were made in assay buffer. Final DMSO concentration was 1% (v/v) in assays. Incubations consisted of compound (1% DMSO in control and blank wells), 25 μM Adenosine-5′-triphosphate (ATP), and 10 nM NIK/MAP3K14 substituting enzyme with buffer in the blank wells. Incubations were carried out for 1 h at 25° C. and were followed by washing and sequential incubation with rabbit anti-phospho-MBP and anti-rabbit Ig Sulfotag antibody before reading bound Sulfotag on a Mesoscale Discovery. Signal obtained in the wells containing blank samples was subtracted from all other wells and IC50's were determined by fitting a sigmoidal curve to % inhibition of control versus Log10 compound concentration.

[2] = target: T1, Recombinant Human NF-kappaB-inducing Kinase (NIK/MAP3K14); assay: Biological Assay A2: inhibition of auto-phosphorylation of recombinant human NIK/MAP3K14 (AlphaScreen); assay type: biochemical; settings: 25 microM ATP, 0.2 nM GST-tagged NIK/MAP3K14, 1 h at 25° C., averaged values, read-out: Alpha-Screen IC50
Procedure: Inhibition of Auto-phosphorylation of Recombinant Human NF-kappaB-inducing Kinase (NIK/MAP3K14) Activity (AlphaScreen®)
NIK/MAP3K14 auto-phosphorylation activity was measured using the AlphaScreen® (αscreen) format (Perkin Elmer). All compounds tested were dissolved in dimethyl sulfoxide (DMSO) and further dilutions were made in assay buffer. Final DMSO concentration was 1% (v/v) in assays. Assay buffer was 50 mM Tris pH 7.5 containing 1 mM EGTA (ethylene glycol tetraacetic acid), 1 mM DTT (dithiothreitol), 0.1 mM Na3VO4, 5 mM MgCl2, 0.01% Tween® 20. Assays were carried out in 384 well Alphaplates (Perkin Elmer). Incubations consisted of compound, 25 microM Adenosine-5′-triphosphate (ATP), and 0.2 nM NIK/MAP3K14. Incubations were initiated by addition of GST-tagged NIK/MAP3K14 enzyme, carried out for 1 h at 25° C. and terminated by addition of stop buffer containing anti-phospho-IKK Ser176/180 antibody. Protein A Acceptor and Glutathione-Donor beads were added before reading using an EnVision® Multilabel Plate Reader (Perkin Elmer). Signal obtained in the wells containing blank samples was subtracted from all other wells and IC50's were determined by fitting a sigmoidal curve to % inhibition of control versus Log10 compound concentration.

[3] = system: P-IKKα levels in L363 cells; assay: Biological Assay B: effect of compounds on P-IKKα levels in L363 cells; assay type: cell-based; settings: Homo sapiens, L-363; L363 cells with BAFF, 2 hr treatment; averaged values; read-out: IKKα Cellular IC50
Procedure: Effect of Compounds on P-IKKα Levels in L363 Cells
All compounds tested were dissolved in DMSO and further dilutions were made in culture medium. Final DMSO concentration was 1% (v/v) in cell assays. The human L363 cells (ATCC) were cultured in RPMI 1640 medium supplemented with GlutaMax and 10% fetal calf serum (PAA). Cells were routinely maintained at densities of 0.2×10^6 cells per ml-1×10^6 cells per ml at 37° C. in a humidified 5% CO2 atmosphere. Cells were passaged twice a week splitting back to obtain the low density. Cells were seeded in 96 well plates (Nunc 167008) at 2×10^6 per ml media in a volume of 75 μl per well plus 25 μl 1 μg/ml recombinant human B-cell activating factor (BAFF/BLyS/TNFSF13B). Seeded cells were incubated at 37° C. in a humidified 5% CO2 atmosphere for 24 hr. Drugs and/or solvents were added (20 μl) to a final volume of 120 μl. Following 2 hr treatment plates were removed from the incubator and cell lysis was achieved by the addition of 30 μl 5× lysis buffer followed by shaking on a plate shaker at 4° C. for 10 min. At the end of this incubation lysed cells were centrifuged at 800×g for 20 min at 4° C. and the lysate was assessed for P-IKKα levels by sandwich immuno-assay carried out in anti-rabbit antibody coated Mesoscale plates. Within an experiment, the results for each treatment were the mean of 2 replicate wells. For initial screening purposes, compounds were tested using an 8 point dilution curve (serial 1:3 dilutions). For each experiment, controls (containing MG132 and BAFF but no test drug) and a blank incubation (containing MG132 and BAFF and 10 μM ADS125117, a test concentration known to give full inhibition) were run in parallel. The blank incubation value was subtracted from all control and sample values. To determine the IC50 a sigmoidal curve was fitted to the plot of % inhibition of control P-IKKα levels versus Log10 compound concentration.

JJN-3 cells = assay: Biological Assay C: antiproliferative activity on JJN-3 cells (CellTiter-Glo); assay type: cell-based; settings: Homo sapiens, 72 hr of treatment, averaged values
Procedure: (§1) Determination of Antiproliferative Activity on LP-1, L-363 and JJN-3 Cells
(§2) All compounds tested were dissolved in DMSO and further dilutions were made in culture medium. Final DMSO concentration was 0.3% (v/v) in cell proliferation assays. Viability was assessed using CellTiter-Glo cell viability assay kit (Promega). The human LP-1, L-363 and JJN-3 cells (DSMZ) were cultured in RPMI 1640 medium supplemented with 2 mM L-glutamine, and 10% fetal calf serum (PAA). Cells were routinely kept as suspension cells at 37° C. in a humidified 5% CO2 atmosphere. Cells were passaged at a seeding density of 0.2×10^6/ml twice a week. Cells were seeded in black tissue culture treated 96-well plates (Perkin Elmer). Densities used for plating ranged from 2,000 to 6,000 cells per well in a total volume of 75 μl medium. After twenty four hours, drugs and/or solvents were added (25 μl) to a final volume of 100 μl. Following 72 hr of treatment plates were removed from the incubator and allowed to equilibrate to room temperature for approx 10 min. 100 μl CellTiter-Glo reagent was added to each well that was then covered (Perkin Elmer Topseal) and shaken on plate shaker for 10 min. Luminescence was measured on a HTS Topcount (Perkin Elmer). Within an experiment, the results for each treatment were the mean of 2 replicate wells. For initial screening purposes, compounds were tested using a 9 point dilution curve (serial 1:3 dilutions). For each experiment, controls (containing no drug) and a blank incubation (containing cells read at the time of compound addition) were run in parallel. The blank value was subtracted from all control and sample values. For each sample, the mean value for cell growth (in relative light units) was expressed as a percentage of the mean value for cell growth of the control.

L-363 cells = assay: Biological Assay C: antiproliferative activity on L-363 cells (CellTiter-Glo); assay type: cell-based; settings: Homo sapiens, 72 hr of treatment, averaged values
Procedure: as §1, §2

LP-1 cells = assay: Biological Assay C: antiproliferative activity on LP-1 cells (CellTiter-Glo); assay type: cell-based; settings: Homo sapiens, 72 hr of treatment, averaged values
Procedure: as §1, §2

T1 sequence (Q99558 whole entry): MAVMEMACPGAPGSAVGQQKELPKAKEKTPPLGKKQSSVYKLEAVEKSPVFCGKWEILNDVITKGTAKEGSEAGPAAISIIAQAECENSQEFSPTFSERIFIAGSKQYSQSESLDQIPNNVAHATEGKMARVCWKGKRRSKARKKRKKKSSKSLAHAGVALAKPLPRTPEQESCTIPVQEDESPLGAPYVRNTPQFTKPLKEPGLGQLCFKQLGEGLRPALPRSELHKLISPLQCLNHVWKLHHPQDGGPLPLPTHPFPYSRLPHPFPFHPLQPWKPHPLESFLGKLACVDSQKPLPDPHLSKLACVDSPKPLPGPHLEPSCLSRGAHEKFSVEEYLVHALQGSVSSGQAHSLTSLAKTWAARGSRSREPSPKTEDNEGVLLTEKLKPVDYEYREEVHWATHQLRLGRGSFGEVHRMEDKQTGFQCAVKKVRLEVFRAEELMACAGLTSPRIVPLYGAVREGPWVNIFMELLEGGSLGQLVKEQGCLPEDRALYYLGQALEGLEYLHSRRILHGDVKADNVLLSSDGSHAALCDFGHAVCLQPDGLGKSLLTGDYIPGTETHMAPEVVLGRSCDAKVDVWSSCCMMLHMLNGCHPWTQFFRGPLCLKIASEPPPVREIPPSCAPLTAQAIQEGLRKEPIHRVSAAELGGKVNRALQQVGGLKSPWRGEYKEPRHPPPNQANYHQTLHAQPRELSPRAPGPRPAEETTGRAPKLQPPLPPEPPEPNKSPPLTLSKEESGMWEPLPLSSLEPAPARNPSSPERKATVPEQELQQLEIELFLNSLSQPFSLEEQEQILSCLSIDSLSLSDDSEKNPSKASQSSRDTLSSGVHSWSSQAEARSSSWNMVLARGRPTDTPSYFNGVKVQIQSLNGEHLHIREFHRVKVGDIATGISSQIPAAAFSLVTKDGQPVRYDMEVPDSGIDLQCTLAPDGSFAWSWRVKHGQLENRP

IC50 [1] [nM]	IC50 [2] [nM]	IC50 [3] [nM]	Compound	EC50 (JJN-3 cells) [nM]	EC50 (L-363 cells) [nM]	EC50 (LP-1 cells) [nM]
29	23	149	CCn1cc(-c2c[nH]nc2C)c2cc(C#CC(C)(C)O)ncc21 [Compound 30]	1690	2410	8230
224	232	1770	CC(C)(O)C#Cc1cc2c(-c3cn[nH]c3)cn(Cc3ccccc3)c2cn1 [Compound 22]	6080	5530	5230
18	108	132	CC(C)(O)C#Cc1cc2c(-c3cn[nH]c3)cn(CC(C)(C)O)c2cn1 [Compound 14]	1400	1330	12100
58	28	173	CCn1cc(-c2c[nH]nc2N)c2cc(C#CC(C)(C)O)ncc21 [Compound 3]	2370	4040	7240
9	9	882	CC(O)(C#Cc1cc2c(-c3cn[nH]c3)c[nH]c2cn1)c1nccs1 (stereo not drawn) [Compound 7]	> 30000	5390	> 30000
88	69	418	CC(C)(O)C#Cc1cc2c(-c3cn[nH]c3)cn(CC3COC3)c2cn1 [Compound 17]	5860	11900	> 30000
21	7	406	Cn1cc(-c2cn[nH]c2)c2cc(C#CC3(O)CCCC3)ncc21 [Compound 8]	3330	5860	9540
14	17	242	OCCn1cc(-c2cn[nH]c2)c2cc(C#CC3(O)CCCC3)ncc21 [Compound 13]	23800	11000	> 30000
14	55	460	CC(C)(O)C#Cc1cc2c(-c3cn[nH]c3)cn(S(C)(=O)=O)c2cn1 [Compound 25]	1900	2260	4980
19	26	1120	OC1(C#Cc2cc3c(-c4cn[nH]c4)c[nH]c3cn2)CCCC1 [Compound 6]	6880	10700	> 30000
76	171	377	CN1CC(n2cc(-c3cn[nH]c3)c3cc(C#CC(C)(C)O)ncc32)C1 [Compound 34]	3660	2200	> 30000
6	21	20	CC(C)n1cc(-c2cn[nH]c2)c2cc(C#CC(C)(C)O)ncc21 [Compound 11]	258	283	916
28	11	210	Cn1cc(-c2cn[nH]c2)c2cc(C#CC(C)(C)O)ncc21 [Compound 4]	1150	1030	4720
92	99	523	COCCn1cc(-c2cn[nH]c2)c2cc(C#CC(C)(C)O)ncc21 [Compound 16]	4050	3140	20400
16	14	71	CC(C)(O)C#Cc1cc2c(-c3cn[nH]c3)cn(CCCO)c2cn1 [Compound 5]	1200	791	18800
9	23	113	CCn1cc(-c2cn[nH]c2)c2cc(C#CC3(O)CCCC3)ncc21 [Compound 10]	1210	3180	5070
57	43	302	CCCC(C)n1cc(-c2cn[nH]c2)c2cc(C#CC(C)(C)O)ncc21 (stereo not drawn) [Compound 23]	848	625	1080
65	98	602	CN1CCC(n2cc(-c3cn[nH]c3)c3cc(C#CC(C)(C)O)ncc32)CC1 [Compound 19]	704	570	11600
10	43	47	CC(C)(O)Cn1cc(-c2cn[nH]c2)c2cc(C#CC(C)(O)c3nccs3)ncc21 (stereo not drawn) [Compound 15]	3850	> 30000	> 30000
48	65	191	CCC(CC)n1cc(-c2cn[nH]c2)c2cc(C#CC(C)(C)O)ncc21 [Compound 24]	744	519	647
129	83	829	CC(C)(O)C#Cc1cc2c(-c3cn[nH]c3)cn(CC3CCOC3)c2cn1 (stereo not drawn) [Compound 2]	3950	4340	21300
68	44	1010	CC(C)(O)C#Cc1cc2c(-c3c[nH]nc3C#N)cn(CC(C)(C)O)c2cn1 [Compound 32]	5670	22600	> 30000

— patent US9981963B2, “3-(1H-pyrazol-4-yl)-1H-pyrrolo[2,3-c]pyridine derivatives as NIK inhibitors” (Janssen Pharmaceutica NV, priority 2013, dated 2018)
